EC50 data for one compound are collected here from ChEMBL document CHEMBL5725304, “3,4-dihydro-2H-isoquinoline-1-one and 2,3-dihydro-isoindol-1-one compounds” (2017).

“And” between values parts separate entries of the source, which are not always exact repeats. Equal values may be shown once.

Assay [1] has as its target T1, Cytochrome P450 11B1, mitochondrial (Homo sapiens, UniProt P15538).
T1 sequence (P15538 whole entry): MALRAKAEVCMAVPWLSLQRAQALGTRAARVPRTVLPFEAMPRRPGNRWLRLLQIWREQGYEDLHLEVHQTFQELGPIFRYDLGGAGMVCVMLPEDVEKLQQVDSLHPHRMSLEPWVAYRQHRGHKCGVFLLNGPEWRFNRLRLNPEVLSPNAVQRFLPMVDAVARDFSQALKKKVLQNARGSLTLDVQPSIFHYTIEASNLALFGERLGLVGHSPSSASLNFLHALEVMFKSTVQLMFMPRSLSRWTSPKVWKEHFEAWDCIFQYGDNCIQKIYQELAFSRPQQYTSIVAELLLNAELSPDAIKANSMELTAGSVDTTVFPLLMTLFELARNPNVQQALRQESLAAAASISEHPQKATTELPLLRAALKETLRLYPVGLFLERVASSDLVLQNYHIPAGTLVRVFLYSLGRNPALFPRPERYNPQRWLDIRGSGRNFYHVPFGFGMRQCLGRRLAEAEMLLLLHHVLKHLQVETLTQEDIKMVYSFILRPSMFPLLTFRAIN
Put plainly: (§1) Cellular Enzyme Assay: G-402 cells expressing CYP11 constructs were established as described above and maintained in McCoy's 5a Medium Modified, ATCC Catalog No. 30-2007 containing 10% FCS and 400 ug/ml G418 (Geneticin) at 37° C. under an atmosphere of 5% CO2/95% air. Cellular enzyme assays were performed in DMEM/F12 medium containing 2.5% charcoal treated FCS and appropriate concentration of substrate (0.3-10 uM 11-Deoxycorticosterone, 11-Deoxycortisol or Corticosterone). For assaying enzymatic activity, cells were plated onto 96 well plates and incubated for 16 h. An aliquot of the supernatant is then transferred and analyzed for the concentration of the expected product (Aldosterone for CYP11B2; Cortisol for CYP11B1). The concentrations of these steroids can be determined using HTRF assays from CisBio analyzing either Aldosterone or Cortisol.

The target of assay [2] is T2, Cytochrome P450 11B2, mitochondrial (Homo sapiens, UniProt P19099).
T2 sequence (P19099 whole entry): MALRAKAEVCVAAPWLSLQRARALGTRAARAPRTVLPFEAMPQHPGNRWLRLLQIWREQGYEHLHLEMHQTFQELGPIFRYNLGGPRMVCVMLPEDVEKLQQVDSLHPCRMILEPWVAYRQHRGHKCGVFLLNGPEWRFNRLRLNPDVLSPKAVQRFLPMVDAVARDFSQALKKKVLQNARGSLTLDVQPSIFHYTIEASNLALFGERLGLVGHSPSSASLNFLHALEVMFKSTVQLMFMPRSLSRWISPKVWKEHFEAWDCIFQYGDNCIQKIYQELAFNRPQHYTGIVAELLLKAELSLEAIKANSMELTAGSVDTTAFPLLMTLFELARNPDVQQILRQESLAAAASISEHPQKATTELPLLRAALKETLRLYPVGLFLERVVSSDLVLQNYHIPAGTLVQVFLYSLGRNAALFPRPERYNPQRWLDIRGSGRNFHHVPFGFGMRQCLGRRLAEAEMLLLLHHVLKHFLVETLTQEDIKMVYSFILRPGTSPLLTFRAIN
The assay is described as §1.

`CCS(=O)(=O)N1CCC(N(C)c2cncc(N3C(=O)c4ccc(Cl)cc4C3(C)C)c2)C1` (single isomer, unassigned): the half-maximal effective concentration (EC50) (as a rule, the midpoint of the concentration-response curve) is 188 nM and 124 nM in assay [1]; 1 nM and 0.6 nM in assay [2].
